Measured values as given in patent US20060286139A1, “Polymeric drug release system for medical devices” (priority 2003, published 2006).

Assay: Drug elution from dual-coated stents (17β-estradiol in PEP94 bottom layer, dexamethasone in PEP90 top layer) into aqueous release medium, HPLC analysis
Format: physicochemical
Conditions: for Percentage Released: bottom layer PEP94, aqueous release medium 37° C.; for Total Microgrammes Released: bottom layer PEP94, loading approx 147 μg, aqueous release medium 37° C.
Protocol: This example describes the preparation and elution of stents comprising 17β-estradiol and dexamethasone each contained within a specific ratio of PVB/PnVPA
A coating solution was prepared made up of PEP94 and 17β-estradiol in a blend of chloroform and acetone (80:20 by weight), so that in terms of total solids 25% was 17β-estradiol, 75% polymer.
A second coating solution was prepared made of PEP 90 and dexamethasone in a mixture of chloroform and acetone (80:20 by weight), so that in terms of total solids 25% was dexamethasone, 75% polymer.
The stents were weighed, spray coated in a ratio of 3:1 (estradiol: dexamethasone) with the respective formulations such that the bottom layer comprised PEP94 with 17β-estradiol and the top layer PEP90 with dexamethasone. The stents were then dried overnight at 40° C. under vacuum.
Upon weighing the average coating weight of the stents was 811 μg yielding drug loadings of approx 147 μg±17 μg for 17β-estradiol and 57 μg±16 μg for dexamethasone.
Each stent was placed on a hook and suspended in a vial containing 8 ml of an aqueous release medium with a 5 mm magnetic flea. The vials were placed on a multipoint stirrer set at 1000 rpm and incubated at 37° C. After a given time interval (ranging from 1 hour to several days), the stents were transferred to fresh aliquots of release medium and replaced on the stirrer to resume agitation. The solution containing dexamethasone/17β-estradiol was set aside for analysis.
Analysis of the samples was carried out using HPLC (Agilent 1100 series).

Percentage Released (time 1 hour): 5.1%
Percentage Released (time 7 hours): 10.5%
Percentage Released (time 24 hours): 17.1%
Total Microgrammes Released (time 1 hour): 7.5 µg
Total Microgrammes Released (time 7 hours): 15.5 µg
Total Microgrammes Released (time 24 hours): 25.1 µg
Compound: C[C@]12CC[C@@H]3c4ccc(O)cc4CC[C@H]3[C@@H]1CC[C@@H]2O [17β-estradiol]
